From patent US20110245316A1, “PREVENTION OR DELAY OF ONSET OF ORAL MUCOSITIS” (SCICLONE PHARMACEUTICALS, INC., priority 2010, published 2011)

Assays:
[1] = test system: cytokines and gene expression in CRT-treated HNC patients; test: Cytokine and gene microarray analyses of patient samples; type: in vivo, human
Experimental: SCV-07 efficacy, dosing and scheduling parameters were assessed in hamster models of acute, fractionated and concomitant chemoradiation (CRT). […] A multicenter, prospective, blinded, randomized trial evaluated SCV-07's ability to alter OM in CRT-treated HNC patients (n=57). Cytokine and gene microarray analyses were performed for samples obtained before and on the last radiation day.

[2] = test system: patients receiving CT/RT for head and neck cancer; test: Phase 2 trial: safety and tolerability; type: in vivo, human; details: 0.02 or 0.1 mg/kg on each radiation day for up to 7 weeks
From the text: OM is a painful, debilitating, and costly toxicity of different chemoradiotherapy (CT/RT) regimens used to treat head and neck cancer. This trial is a phase 2, randomized, double-blind, dose-ranging, placebo-controlled three-arm study in patients receiving CT/RT for the treatment of head and neck cancer, to assess the safety and tolerability of γ-D-glutamyl-L-tryptophan (SCV-07) as well as its efficacy in delaying the onset of severe OM as assessed by the WHO Oral Mucositis Scale.
59 eligible patients with recently diagnosed, treatment naïve, pathologically-confirmed, non-metastatic squamous cell carcinoma of the oral cavity, oropharynx, hypopharynx or larynx were enrolled and treated with a concomitant regimen of CT/RT consisting of a continuous course of external beam irradiation (IMRT eligible) with a minimum cumulative dose of 50 Gray (Gy) and cisplatin monotherapy administered using standard weekly or tri-weekly dosing regimens (80-100 mg/m^2 administered on Days 0, 21 and 42) or weekly (30-40 mg/m^2). At least two ‘at risk’ intraoral sites were included in the radiation fields and received a cumulative RT dose of at least 50 Gy. Subjects were equally randomized to receive either placebo or one of two doses of γ-D-glutamyl-L-tryptophan (0.02 or 0.1 mg/kg) on each radiation day for up to 7 weeks.

[3] = test system: human head and neck cancer (HNC) lines; test: Xenograft studies: CRT anti-tumor response; type: in vivo
[4] = persons who clinically responded to SCV-07

Question: How did the ICAM ([1]; SCV-07-treated patients) turn out when `N[C@H](CCC(=O)N[C@@H](Cc1c[nH]c2ccccc12)C(=O)O)C(=O)O` [SCV-07, γ-D-glutamyl-L-tryptophan] was run?
Answer: Increases

Question: And the IL-1alpha ([1]; SCV-07-treated patients)?
Answer: Decreases

Question: And the IL-5 ([1]; SCV-07-treated patients)?
Answer: Decreases

Question: And the IL-12 ([1]; SCV-07-treated patients)?
Answer: Increases

Question: And the IL-15 ([1]; SCV-07-treated patients)?
Answer: Decreases

Question: And the MIF ([1]; SCV-07-treated patients)?
Answer: Increases

Question: What about the MIP-1beta ([1]; SCV-07-treated patients) of the same compound?
Answer: Increases

Question: And the MIP-3 alpha ([1]; SCV-07-treated patients)?
Answer: Decreases

Question: What about the Pro-inflammatory cytokine levels ([1]; SCV-07-treated patients) of the same compound?
Answer: reduced

Question: And the TNF-alpha ([1]; SCV-07-treated patients)?
Answer: Decreases

Question: And the VCAM ([1]; SCV-07-treated patients)?
Answer: Increases

Question: What about the macrophage-associated cytokines ([1]; SCV-07-treated patients) of the same compound?
Answer: Elevated

Question: What about the “Gene expression (microarray)” value ([1]; SCV-07 vs placebo patients) of the same compound?
Answer: Gene expression differences were noted

Question: And the IL-21 [1, 4]?
Answer: increases

Question: What about the MIF [1, 4] of the same compound?
Answer: increases

Question: What about the VEGF [1, 4] of the same compound?
Answer: decrease

Question: And the safety and tolerability [2]?
Answer: safe and well tolerated with no drug-related serious adverse events reported

Question: What about the safety and tolerability ([2]; listed as γ-D-glutamyl-L-tryptophan) of the same compound?
Answer: safe and well tolerated

Question: And the “impact on CRT anti-tumor response” value [3]?
Answer: did not impact CRT anti-tumor response
